Measurements taken from US12448366B2, “Solid forms of pralsetinib” (Rigel Pharmaceuticals, Inc., priority 2020, dated 2025).
Where a name gives a salt, the structure may show the parent alone.

Legend:
Format in all cases: physicochemical
[1] = Salt screening: XRPD of wet cake, after drying under vacuum at 50° C., after exposure to 97% relative humidity; details: for stability of salt solid form to humidification: 97% (>95%) relative humidity; for stability of salt solid form to humidification / stability of salt solid form to drying: XRPD; for stability of salt solid form to drying: vacuum at 50° C.; for XRPD Pattern Dry / XRPD Pattern Humid: salt screening; for XRPD Pattern Dry: after drying; for XRPD Pattern Humid: after humidity exposure
Description: Stock solutions of counter-ion were prepared in EtOH, MeOH, or EtOAc, depending on solubility. […] The solvent was allowed to evaporate at room temperature over the weekend and then placed at 50° C. under vacuum for 3 hours to remove any remaining solvent. Approximately 25 volumes solvent (0.6 mL) was added to each vial for screening. The three solvents selected were EtOH, EtOAc, and IPA:water (9:1 vol). […] XRPD analysis was done in three stages. XRPD of the wet cake was done for all samples. Unique solids were then left on XRPD plates and dried under vacuum at 50° C. XRPD of unique dry solids was then done. […] The humid environment was generated by placing a beaker of saturated potassium sulfate in water in a sealed container. All XRPD patterns were compared to counter ion XRPD patterns and known free base patterns. Where solids were not of sufficient quantity to isolate, the solvent was evaporated at room temperature, the material dried at 50° C. under active vacuum for 3 hours, and then reslurried at room temperature in either MtBE or IPAc overnight after heating to 45° C. for 30 minutes.

[2] = Humidity exposure, 75% relative humidity at 40° C. for one week, XRPD
[3] = One week (7 days) slurry stability by XRPD and HPLC

CO[C@]1(C(=O)N[C@@H](C)c2ccc(-n3cc(F)cn3)nc2)CC[C@H](c2nc(C)cc(Nc3cc(C)[nH]n3)n2)CC1 (single isomer, unassigned) [Pattern 12-G+2 peaks, pralsetinib]
stability of salt solid form to humidification [1]: reverted to Pattern 12-G
stability of salt solid form to drying [1]: converted to Pattern 12-H

CO[C@]1(C(=O)N[C@@H](C)c2ccc(-n3cc(F)cn3)nc2)CC[C@H](c2nc(C)cc(Nc3cc(C)[nH]n3)n2)CC1 [Fumarate, pralsetinib]
stability of salt solid form to drying [1]: changed

COC1(C(=O)NC(C)c2ccc(-n3cc(F)cn3)nc2)CCC(c2nc(C)cc(Nc3cc(C)[nH]n3)n2)CC1.Cl (stereo not shown) [HCl 5-B]
Stability 40° C./75% RH ([2]; XRPD pattern after exposure): Stable
Stability 7-day slurry [3]: Stable

CO[C@]1(C(=O)N[C@@H](C)c2ccc(-n3cc(F)cn3)nc2)CC[C@@H](c2nc(C)cc(Nc3cc(C)[nH]n3)n2)CC1.Cl [HCl]
XRPD Pattern Dry ([1]; solvent EtOAc): 5-C + broad
XRPD Pattern Humid ([1]; solvent EtOAc): 5-C + trace
XRPD Pattern Humid ([1]; solvent IPA:water (9:1 vol)): 5-C + trace

CS(=O)(=O)O [MSA]
XRPD Pattern Dry ([1]; solvent IPA:water (9:1 vol)): 2-B + extra

CO[C@]1(C(=O)N[C@@H](C)c2ccc(-n3cc(F)cn3)nc2)CC[C@H](c2nc(C)cc(Nc3cc(C)[nH]n3)n2)CC1 [Pyruvate, pralsetinib]
stability of salt solid form to humidification [1]: changed form

CO[C@]1(C(=O)N[C@@H](C)c2ccc(-n3cc(F)cn3)nc2)CC[C@H](c2nc(C)cc(Nc3cc(C)[nH]n3)n2)CC1 [Solid Form 1-A, pralsetinib]
stability of salt solid form to humidification ([1]; listed as solid form 1-A): peak shift

CO[C@]1(C(=O)N[C@@H](C)c2ccc(-n3cc(F)cn3)nc2)CC[C@H](c2nc(C)cc(Nc3cc(C)[nH]n3)n2)CC1 [Solid Form 1-B, pralsetinib]
stability of salt solid form to humidification ([1]; listed as solid form 1-B): converted to Pattern 1-C

CO[C@]1(C(=O)N[C@@H](C)c2ccc(-n3cc(F)cn3)nc2)CC[C@H](c2nc(C)cc(Nc3cc(C)[nH]n3)n2)CC1 [Solid Form 4-A, pralsetinib]
stability of salt solid form to humidification ([1]; listed as Pattern 4-A): stable
stability of salt solid form to drying ([1]; listed as Pattern 4-A): Pattern 4-C

CO[C@]1(C(=O)N[C@@H](C)c2ccc(-n3cc(F)cn3)nc2)CC[C@H](c2nc(C)cc(Nc3cc(C)[nH]n3)n2)CC1 [Solid Form 4-B, pralsetinib]
stability of salt solid form to humidification ([1]; listed as Pattern 4-B): stable

CO[C@]1(C(=O)N[C@@H](C)c2ccc(-n3cc(F)cn3)nc2)CC[C@H](c2nc(C)cc(Nc3cc(C)[nH]n3)n2)CC1 [Solid Form 5-A, pralsetinib]
stability of salt solid form to humidification ([1]; listed as Form 5-A): deliquesced
stability of salt solid form to humidification ([1]; listed as Pattern 5-A): deliquesced
stability of salt solid form to humidification ([1]; listed as hydrochloride (5-A)): deliquesced
stability of salt solid form to drying ([1]; listed as Form 5-A): stable
stability of salt solid form to drying ([1]; listed as Pattern 5-A): stable

CO[C@]1(C(=O)N[C@@H](C)c2ccc(-n3cc(F)cn3)nc2)CC[C@H](c2nc(C)cc(Nc3cc(C)[nH]n3)n2)CC1 [Solid Form 5-B, pralsetinib]
stability of salt solid form to humidification ([1]; listed as Pattern 5-B): stable
stability of salt solid form to drying ([1]; listed as Form 5-B): converted to Form 5-C
stability of salt solid form to drying ([1]; listed as Pattern 5-B): dried to Pattern 5-C
stability slurrying 7 days in EtOAc ([3]; EtOAc, XRPD and HPLC, listed as Pattern 5-B): stable
stability slurrying 7 days in EtOH ([3]; EtOH, XRPD and HPLC, listed as Pattern 5-B): stable
stability slurrying 7 days in EtOH:water (95:5 vol) ([3]; EtOH:water (95:5 vol), XRPD and HPLC, listed as Pattern 5-B): stable

CO[C@]1(C(=O)N[C@@H](C)c2ccc(-n3cc(F)cn3)nc2)CC[C@H](c2nc(C)cc(Nc3cc(C)[nH]n3)n2)CC1 [Solid Form 5-C, pralsetinib]
stability of salt solid form to humidification ([1]; listed as Form 5-C): stable

CO[C@]1(C(=O)N[C@@H](C)c2ccc(-n3cc(F)cn3)nc2)CC[C@H](c2nc(C)cc(Nc3cc(C)[nH]n3)n2)CC1 [Solid Form 6-A, pralsetinib]
stability of salt solid form to humidification ([1]; listed as Pattern 6-A): became amorphous with one peak

CO[C@]1(C(=O)N[C@@H](C)c2ccc(-n3cc(F)cn3)nc2)CC[C@H](c2nc(C)cc(Nc3cc(C)[nH]n3)n2)CC1 [Solid Form 8-A, pralsetinib]
stability of salt solid form to humidification ([1]; listed as Pattern 8-A): stable
stability of salt solid form to humidification ([1]; listed as maleate 8-A): stable
stability of salt solid form to drying ([1]; listed as Pattern 8-A): stable
stability of salt solid form to drying ([1]; listed as maleate 8-A): stable

CO[C@]1(C(=O)N[C@@H](C)c2ccc(-n3cc(F)cn3)nc2)CC[C@H](c2nc(C)cc(Nc3cc(C)[nH]n3)n2)CC1 [Solid Form 9-A, pralsetinib]
stability of salt solid form to humidification ([1]; listed as 9-A): stable
stability of salt solid form to humidification ([1]; listed as oxalate 9-A): stable
stability of salt solid form to drying ([1]; listed as 9-A): stable
stability of salt solid form to drying ([1]; listed as oxalate 9-A): stable

CO[C@]1(C(=O)N[C@@H](C)c2ccc(-n3cc(F)cn3)nc2)CC[C@H](c2nc(C)cc(Nc3cc(C)[nH]n3)n2)CC1 [Solid Form 10-A+B, pralsetinib]
stability of salt solid form to humidification ([1]; listed as 10-A+B): stable
stability of salt solid form to drying ([1]; listed as 10-A+B): stable

CO[C@]1(C(=O)N[C@@H](C)c2ccc(-n3cc(F)cn3)nc2)CC[C@H](c2nc(C)cc(Nc3cc(C)[nH]n3)n2)CC1 [Solid Form 12-B, pralsetinib]
stability of salt solid form to drying ([1]; listed as Pattern 12-B): stable

CO[C@]1(C(=O)N[C@@H](C)c2ccc(-n3cc(F)cn3)nc2)CC[C@H](c2nc(C)cc(Nc3cc(C)[nH]n3)n2)CC1 [Solid Form 12-C, pralsetinib]
stability of salt solid form to drying ([1]; listed as Pattern 12-C): stable

CO[C@]1(C(=O)N[C@@H](C)c2ccc(-n3cc(F)cn3)nc2)CC[C@H](c2nc(C)cc(Nc3cc(C)[nH]n3)n2)CC1 [Solid Form 12-D, pralsetinib]
stability of salt solid form to drying ([1]; listed as Pattern 12-D): Pattern 12-E

CO[C@]1(C(=O)N[C@@H](C)c2ccc(-n3cc(F)cn3)nc2)CC[C@H](c2nc(C)cc(Nc3cc(C)[nH]n3)n2)CC1 [citrate, pralsetinib]
stability of salt solid form to humidification [1]: deliquesced
stability of salt solid form to humidification ([1]; listed as Citrate): deliquesced

CO[C@]1(C(=O)N[C@@H](C)c2ccc(-n3cc(F)cn3)nc2)CC[C@H](c2nc(C)cc(Nc3cc(C)[nH]n3)n2)CC1 [gentisate, pralsetinib]
stability of salt solid form to humidification [1]: deliquesced

CO[C@]1(C(=O)N[C@@H](C)c2ccc(-n3cc(F)cn3)nc2)CC[C@H](c2nc(C)cc(Nc3cc(C)[nH]n3)n2)CC1 [hydrochloride, pralsetinib]
stability of salt solid form to humidification [1]: deliquesced
stability on exposure to 75% relative humidity at 40° C. ([2]; one week / 7 days, XRPD, listed as HCl salt): stable

CO[C@]1(C(=O)N[C@@H](C)c2ccc(-n3cc(F)cn3)nc2)CC[C@H](c2nc(C)cc(Nc3cc(C)[nH]n3)n2)CC1 [saccharine salt, pralsetinib]
stability of salt solid form to humidification [1]: changed form

CO[C@]1(C(=O)N[C@@H](C)c2ccc(-n3cc(F)cn3)nc2)CC[C@H](c2nc(C)cc(Nc3cc(C)[nH]n3)n2)CC1 [sulfate, pralsetinib]
stability of salt solid form to drying [1]: changed

CO[C@]1(C(=O)N[C@@H](C)c2ccc(-n3cc(F)cn3)nc2)CC[C@H](c2nc(C)cc(Nc3cc(C)[nH]n3)n2)CC1 [sulfates generated from the 1.1 eq. experiments] [pralsetinib]
stability of salt solid form to humidification [1]: changed form
